Measured values taken from paper PMC6342301, “Potent, multi-target serine protease inhibition achieved by a simplified β-sheet motif” (PLoS ONE, 2019).
Like-named read-outs stand apart in the source and are kept apart here. Bridge positions count the residues as written; N and C are the ends. Peptide text beside a SMILES is read from it.

Key:
KLK7 [1] = target: T1, KLK7 (Homo sapiens, UniProt P49862); test: Competitive inhibition assay against KLK7 (KHLY-pNA substrate); assay type: biochemical; settings: for Ki: KLK7, substrate KHLY-pNA, Morrison equation
T1 construct: made in house; host or cells: Pichia pastoris strain X-33
T1 sequence (P49862 30-253): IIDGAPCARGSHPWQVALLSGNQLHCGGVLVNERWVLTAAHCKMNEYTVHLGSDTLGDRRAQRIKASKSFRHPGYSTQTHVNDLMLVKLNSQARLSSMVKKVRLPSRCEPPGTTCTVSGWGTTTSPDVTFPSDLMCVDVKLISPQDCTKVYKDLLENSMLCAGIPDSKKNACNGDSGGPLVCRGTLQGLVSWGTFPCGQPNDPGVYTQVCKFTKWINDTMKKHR
Text: KLK7 was produced as a zymogen in the yeast Pichia pastoris strain X-33 previously developed and optimised by Dr Maria Brattsand [29]. Expressed proteins were purified using cation exchange chromatography on UnoSphere S (Biorad) and activated by treatment with enterokinase (10 units per milligram purified zymogen; Thermo Fisher Scientific) before a final polishing step to remove enterokinase, again using cation exchange chromatography. The active site concentration of purified KLK7 was determined using the serpin α1- proteinase inhibitor (A1PI) which binds to KLK7 with 1:1 stoichiometry. Briefly, a fixed amount of KLK7 was pre-incubated with a range of inhibitor concentrations at room temperature for 20 min before adding a constant concentration of substrate KHLY-pNA. The residual KLK7 activities were measured as the increase of absorbance at 405 nm for 10 min (ΔOD405/min) and plotted against respective inhibitor concentrations. The active site concentration was determined by linear regression to find the concentration of inhibitor required for complete KLK7 inhibition (ΔOD405/min drops to zero), which is equal to the concentration of KLK7 active site.
Inhibitory property of SFTI inhibitors was assessed by determining the inhibition constant (Ki) in competitive inhibition assays against a range of proteases as described before. Serial dilutions of the inhibitor were pre-incubated with a fix concentration of protease in assay buffer (0.1 M Tris pH 8.0, 0.1 M NaCl and 0.05% Triton X-100) at room temperature for 10 min. Assays were initiated by addition of respective peptide-pNA substrates. Absorbance changes at 405 nm were monitored using a micro plate spectrophotometer (Bio-rad Benchmark Plus) over 5 min. Inhibition constants were calculated in GraphPad Prism 5.01 (La Jolla California, USA) by non-linear regression using the Morrison equation for tight binding inhibitors.

KLK7 [2] = target: T1, KLK7; design: method as in PMID 26393374; settings: substrate KHLY-pNA; cited from earlier work
Trypsin = settings: substrate Ac-YASR-pNA; cited from earlier work
KLK5 = settings: substrate Ac-YRSR-pNA; cited from earlier work
KLK14 = settings: substrate Ac-YANR-pNA; cited from earlier work
KLK7 [3] = target: T1, KLK7; settings: cited from earlier work

CC[C@H](C)[C@@H]1NC(=O)[C@@H]2CCCN2C(=O)[C@@H]2CCCN2C(=O)[C@H]([C@@H](C)CC)NC(=O)[C@H](CO)NC(=O)[C@H](CCCNC(=N)N)NC(=O)[C@H]([C@@H](C)O)NC(=O)[C@@H]2CSSC[C@H](NC1=O)C(=O)N[C@@H](Cc1ccccc1)C(=O)N1CCC[C@H]1C(=O)N[C@@H](CC(=O)O)C(=O)NCC(=O)N[C@@H](CCCNC(=N)N)C(=O)N2 [SFTI-RCTR] (cyclo(CFPDGRCTRSIPPI); disulfide 1-7)
Ki (KLK7 [1]): 220 ± 6 nM

SFTI-TCTR: SFTI variant GTCTRSIPPICNPN with four mutations R2T (P4), K5R (P1), F12N, D14N in the cyclic backbone (head-to-tail cyclic backbone)
fold increased inhibitory potency against KLK7 compared to SFTI-1 (KLK7 [1]; ratio of Ki values, relative to SFTI-1): 286 fold
fold increase in KLK7 inhibitory potency compared to SFTI-RCTR (KLK7 [1]; ratio of Ki values, relative to SFTI-RCTR): 13 fold
Ki (KLK7 [2]): 17 ± 0.4 nM
Ki (Trypsin): 0.7 ± 0.07 nM
Ki (KLK5): 2 ± 0.1 nM
Ki (KLK14): 0.4 ± 0.02 nM

CC[C@H](C)[C@@H]1NC(=O)[C@@H]2CCCN2C(=O)[C@@H]2CCCN2C(=O)[C@H]([C@@H](C)CC)NC(=O)[C@H](CO)NC(=O)[C@H](CCCCN)NC(=O)[C@H]([C@@H](C)O)NC(=O)[C@@H]2CSSC[C@H](NC1=O)C(=O)N[C@@H](Cc1ccccc1)C(=O)N1CCC[C@H]1C(=O)N[C@@H](CC(=O)O)C(=O)NCC(=O)N[C@@H](CCCNC(=N)N)C(=O)N2 [SFTI-1, Sunflower trypsin inhibitor-1, reference compound]
Ki (KLK7 [1]): 4800 ± 200 nM

B1: recombinant LEKTI fragment comprising domains 8–11: recombinant LEKTI fragment comprising domains 8–11 (protein)
chain: EAAKEICSEFRDQVRNGTLICTREHNPVRGPDGKMHGNKCAMCASVFKLEEEEKKNDKEEKGKVEAEKVKREAVQELCSEYRHYVRNGRLPCTRENDPIEGLDGKIHGNTCSMCEAFFQQEAKEKERAEPRAKVKREAEKETCDEFRRLLQNGKLFCTRENDPVRGPDGKTHGNKCAMCKAVFQKENEERKRKEEEDQRNAAGHGSSGGGGGNTQDECAEYREQMKNGRLSCTRESDPVRDADGKSYNNQCTMCKAKLEREAERKNEY
modifications: intradomain disulfides; check residue is from a known polymorphic site (R711Q), not from the pape
Ki (KLK7 [3]): 34.8 nM
